Assay results reported in ChEMBL document CHEMBL4196165, “Catenulobactins A and B, Heterocyclic Peptides from Culturing Catenuloplanes sp. with a Mycolic Acid-Containing Bacterium” (J Nat Prod, 2018).
Calls of active or inactive are those of the source. The rule behind the calls is not given here.

Key:
[1] = Metal chelating activity assessed as compound-Fe3+ complex formation after 1 hr by LC/MS analysis
P388 [2] = experiment: Cytotoxicity against mouse P388 cells up to 100 uM after 4 days by MTT assay; type: functional, cell-based
P388 [3] = experiment: Cytotoxicity against mouse P388 cells after 4 days by MTT assay; type: functional, cell-based; conditions: P388, 96 h
[4] = Stability of the compound in physiological conditions at pH > 7; type: physicochemical

Row | Structure (SMILES) | Activity [1] | Activity (P388 [2]) | IC50 (P388 [3]) [µM] | Stability [4]
1 | C[C@@H]1ON(CCC[C@@H](NC(=O)[C@H]2N=C(c3ccccc3O)O[C@@H]2C)C(=O)O)C(=O)[C@H]1NC(=O)c1ccccc1O | inactive | inactive |  | 
2 | C[C@H]1OC(c2ccccc2O)=N[C@@H]1C(=O)N[C@H](CCCN(O)C(=O)[C@H]1N=C(c2ccccc2O)O[C@@H]1C)C(=O)O | Active |  | 22.4 | Unstable
